According to ChEMBL document CHEMBL1138584, “(3,3-Difluoro-pyrrolidin-1-yl)-[(2S,4S)-(4-(4-pyrimidin-2-yl-piperazin-1-yl)-pyrrolidin-2-yl]-methanone: a potent, selective, orally active dipeptidyl peptidase IV inhibitor” (Bioorg Med Chem Lett, 2009):
Values after ≈ are worked out from the molar mass of the structure shown. Values belong to the compound of their own block, whether it stands above or below them.

Assays:
[1] = target: Voltage-gated inwardly rectifying potassium channel KCNH2 (Homo sapiens, UniProt Q12809); assay: Inhibition of human ERG by patch-clamp technique
Voltage-gated inwardly rectifying potassium channel KCNH2, sequence (Q12809 whole entry): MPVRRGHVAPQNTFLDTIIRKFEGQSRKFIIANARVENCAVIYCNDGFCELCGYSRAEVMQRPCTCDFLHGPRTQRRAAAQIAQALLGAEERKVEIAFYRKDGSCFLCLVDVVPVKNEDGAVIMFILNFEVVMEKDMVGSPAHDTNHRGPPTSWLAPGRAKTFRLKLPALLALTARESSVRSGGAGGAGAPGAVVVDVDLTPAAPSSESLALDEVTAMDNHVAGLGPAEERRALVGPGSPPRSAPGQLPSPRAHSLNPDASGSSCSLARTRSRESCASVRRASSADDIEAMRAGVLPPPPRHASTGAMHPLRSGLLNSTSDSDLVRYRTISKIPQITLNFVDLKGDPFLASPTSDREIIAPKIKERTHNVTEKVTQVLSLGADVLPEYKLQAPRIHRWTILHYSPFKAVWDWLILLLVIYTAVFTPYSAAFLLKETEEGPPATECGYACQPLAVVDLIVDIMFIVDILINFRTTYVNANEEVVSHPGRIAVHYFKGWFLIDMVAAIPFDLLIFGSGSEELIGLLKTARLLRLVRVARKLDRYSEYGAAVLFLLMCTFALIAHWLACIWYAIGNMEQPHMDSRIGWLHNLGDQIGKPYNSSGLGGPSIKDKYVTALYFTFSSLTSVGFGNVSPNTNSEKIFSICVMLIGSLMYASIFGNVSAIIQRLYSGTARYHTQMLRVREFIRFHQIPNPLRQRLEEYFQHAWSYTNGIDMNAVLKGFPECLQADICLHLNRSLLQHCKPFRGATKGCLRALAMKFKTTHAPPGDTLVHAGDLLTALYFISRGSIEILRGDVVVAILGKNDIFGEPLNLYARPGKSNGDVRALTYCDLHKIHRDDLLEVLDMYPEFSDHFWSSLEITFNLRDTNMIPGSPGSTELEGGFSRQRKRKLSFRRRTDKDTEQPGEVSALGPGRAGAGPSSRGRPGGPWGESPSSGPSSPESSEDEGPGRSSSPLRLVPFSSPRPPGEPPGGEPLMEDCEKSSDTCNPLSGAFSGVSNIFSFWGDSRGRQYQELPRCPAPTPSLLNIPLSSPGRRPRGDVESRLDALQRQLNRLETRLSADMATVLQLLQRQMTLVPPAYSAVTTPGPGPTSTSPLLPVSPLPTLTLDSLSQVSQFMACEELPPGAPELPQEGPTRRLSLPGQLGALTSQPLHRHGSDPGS

[2] = Apparent permeability from basolateral to apical side in MDCK cells; details: dog
hERG (KCNH2) = hERG (KCNH2) (Homo sapiens, UniProt Q12809); assay: Displacement of [3H]dofetilide from human ERG expressed in HEK293 cells at 10 uM
hERG (KCNH2), sequence (Q12809 whole entry): as above

in vivo [3] = details: Sprague-Dawley, rat, po, 5 mg/kg
Description: Cmax in Sprague-Dawley rat at 5 mg/kg, po

in vivo [4] = details: Sprague-Dawley, rat, plasma, po, 5 mg/kg
Description: AUC in Sprague-Dawley rat at 5 mg/kg, po

[5] = Apparent permeability from apical to basolateral side in MDCK cells; details: dog
[6] = Bioavailability in Sprague-Dawley rat at 1 mg/kg, iv and 5 mg/kg, po; details: in vivo
[7] = Half life in Sprague-Dawley rat at 1 mg/kg, iv and 5 mg/kg, po; details: in vivo
[8] = Clearance in Sprague-Dawley rat plasma at 1 mg/kg, iv and 5 mg/kg, po
[9] = Volume of distribution at steady state in Sprague-Dawley rat at 1 mg/kg, iv and 5 mg/kg, po; details: in vivo
Rattus norvegicus = species: Rattus norvegicus; assay: Ex vivo inhibition of DPP4 in Sprague-Dawley rat; type: functional, organism-based
Cytochrome P450 3A4 = Cytochrome P450 3A4 (Homo sapiens, UniProt P08684); assay: Inhibition of CYP3A4; type: ADME
Cytochrome P450 3A4, sequence (P08684 whole entry): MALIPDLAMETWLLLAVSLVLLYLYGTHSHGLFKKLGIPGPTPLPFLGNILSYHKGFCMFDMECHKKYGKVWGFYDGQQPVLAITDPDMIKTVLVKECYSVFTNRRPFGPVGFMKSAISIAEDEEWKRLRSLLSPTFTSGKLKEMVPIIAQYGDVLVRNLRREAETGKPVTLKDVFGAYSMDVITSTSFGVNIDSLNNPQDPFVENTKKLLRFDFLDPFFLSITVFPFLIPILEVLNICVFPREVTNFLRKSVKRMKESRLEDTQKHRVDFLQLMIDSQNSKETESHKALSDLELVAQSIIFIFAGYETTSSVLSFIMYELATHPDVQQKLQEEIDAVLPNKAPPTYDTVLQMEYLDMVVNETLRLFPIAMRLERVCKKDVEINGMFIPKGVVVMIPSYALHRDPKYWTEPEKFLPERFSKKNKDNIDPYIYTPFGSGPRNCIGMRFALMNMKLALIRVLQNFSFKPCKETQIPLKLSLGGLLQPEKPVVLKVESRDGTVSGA

[10] = Cmax in dog at 1 mg/kg, po; type: ADME, organism-based, Canis lupus familiaris; parameters: dose 1 mg/kg, route oral; details: in vivo
[11] = Clearance in cynomolgus monkey plasma at 1 mg/kg, iv and 1 mg/kg, po; type: ADME, organism-based, Macaca fascicularis
[12] = Fraction unbound in rat; type: ADME
[13] = AUC in cynomolgus monkey at 1 mg/kg, po; type: ADME, organism-based, Macaca fascicularis; parameters: dose 1 mg/kg, route oral; details: plasma
Cytochrome P450 2C9 = Cytochrome P450 2C9 (Homo sapiens, UniProt P11712); assay: Inhibition of CYP2C9; type: ADME
Cytochrome P450 2C9, sequence (P11712 whole entry): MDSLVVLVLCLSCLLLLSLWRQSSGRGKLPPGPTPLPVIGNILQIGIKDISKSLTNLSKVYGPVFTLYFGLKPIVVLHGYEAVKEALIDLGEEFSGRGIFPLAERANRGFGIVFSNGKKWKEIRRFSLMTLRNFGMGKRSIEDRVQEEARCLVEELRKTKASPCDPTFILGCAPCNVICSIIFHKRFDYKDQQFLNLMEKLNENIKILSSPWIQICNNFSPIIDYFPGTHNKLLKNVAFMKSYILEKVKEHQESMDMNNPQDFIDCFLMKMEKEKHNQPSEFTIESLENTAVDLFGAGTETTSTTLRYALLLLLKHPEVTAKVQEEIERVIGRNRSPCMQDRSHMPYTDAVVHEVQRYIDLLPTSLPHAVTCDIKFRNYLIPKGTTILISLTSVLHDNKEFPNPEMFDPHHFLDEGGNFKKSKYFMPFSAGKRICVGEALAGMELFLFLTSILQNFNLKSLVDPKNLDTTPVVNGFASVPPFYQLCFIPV

[14] = Terminal half life in human at 0.3 to 300 mg; type: ADME, organism-based; details: in vivo, read-out: beta t1/2 (converted)
Cytochrome P450 2C19 = Cytochrome P450 2C19 (Homo sapiens, UniProt P33261); assay: Inhibition of CYP2C19; type: ADME
Cytochrome P450 2C19, sequence (P33261 whole entry): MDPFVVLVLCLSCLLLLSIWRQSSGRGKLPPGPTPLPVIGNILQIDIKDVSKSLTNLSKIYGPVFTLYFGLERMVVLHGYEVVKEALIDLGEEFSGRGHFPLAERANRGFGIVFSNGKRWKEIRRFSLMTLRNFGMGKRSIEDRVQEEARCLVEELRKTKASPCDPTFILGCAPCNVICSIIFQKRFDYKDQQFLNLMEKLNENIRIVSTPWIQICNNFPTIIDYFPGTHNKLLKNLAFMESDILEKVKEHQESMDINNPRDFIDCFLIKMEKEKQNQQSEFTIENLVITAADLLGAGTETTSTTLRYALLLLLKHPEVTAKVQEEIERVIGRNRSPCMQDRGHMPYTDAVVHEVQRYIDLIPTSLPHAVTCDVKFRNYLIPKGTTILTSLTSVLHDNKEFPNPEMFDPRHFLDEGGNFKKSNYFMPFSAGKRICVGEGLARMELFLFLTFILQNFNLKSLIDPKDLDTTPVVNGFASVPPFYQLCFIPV

Prolyl endopeptidase = target: T1, Prolyl endopeptidase (Homo sapiens, UniProt P48147); assay: Inhibition of POP
T1 sequence (P48147 whole entry): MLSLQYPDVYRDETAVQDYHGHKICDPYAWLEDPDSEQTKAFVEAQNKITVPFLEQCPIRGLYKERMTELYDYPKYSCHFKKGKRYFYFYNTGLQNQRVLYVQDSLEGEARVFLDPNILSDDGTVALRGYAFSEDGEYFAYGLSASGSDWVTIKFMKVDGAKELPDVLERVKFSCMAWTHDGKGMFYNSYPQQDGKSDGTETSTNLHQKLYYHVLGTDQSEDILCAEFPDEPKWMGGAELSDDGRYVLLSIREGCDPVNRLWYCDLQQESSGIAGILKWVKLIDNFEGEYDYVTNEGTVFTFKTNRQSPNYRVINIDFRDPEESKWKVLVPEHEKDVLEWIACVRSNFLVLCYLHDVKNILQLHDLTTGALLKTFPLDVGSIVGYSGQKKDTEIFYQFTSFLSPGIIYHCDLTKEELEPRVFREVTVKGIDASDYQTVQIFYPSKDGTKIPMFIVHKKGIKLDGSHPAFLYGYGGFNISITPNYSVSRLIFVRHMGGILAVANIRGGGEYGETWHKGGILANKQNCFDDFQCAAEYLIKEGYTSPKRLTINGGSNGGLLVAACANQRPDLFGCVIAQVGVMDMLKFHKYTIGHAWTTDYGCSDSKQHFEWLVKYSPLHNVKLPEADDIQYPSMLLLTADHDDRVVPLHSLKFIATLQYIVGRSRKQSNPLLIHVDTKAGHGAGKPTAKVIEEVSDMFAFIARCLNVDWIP

[15] = Cmax in cynomolgus monkey at 1 mg/kg, po; type: ADME, organism-based, Macaca fascicularis; parameters: dose 1 mg/kg, route oral; details: in vivo
[16] = Volume of distribution at steady state in cynomolgus monkey at 1 mg/kg, iv and 1 mg/kg, po; type: ADME, organism-based, Macaca fascicularis; details: in vivo, read-out: Vdss
Dipeptidyl peptidase 3 = target: T2, Dipeptidyl peptidase 3 (Homo sapiens, UniProt Q9NY33); assay: Inhibition of DPP3 in human erythrocytes; type: cell-based
T2 sequence (Q9NY33 whole entry): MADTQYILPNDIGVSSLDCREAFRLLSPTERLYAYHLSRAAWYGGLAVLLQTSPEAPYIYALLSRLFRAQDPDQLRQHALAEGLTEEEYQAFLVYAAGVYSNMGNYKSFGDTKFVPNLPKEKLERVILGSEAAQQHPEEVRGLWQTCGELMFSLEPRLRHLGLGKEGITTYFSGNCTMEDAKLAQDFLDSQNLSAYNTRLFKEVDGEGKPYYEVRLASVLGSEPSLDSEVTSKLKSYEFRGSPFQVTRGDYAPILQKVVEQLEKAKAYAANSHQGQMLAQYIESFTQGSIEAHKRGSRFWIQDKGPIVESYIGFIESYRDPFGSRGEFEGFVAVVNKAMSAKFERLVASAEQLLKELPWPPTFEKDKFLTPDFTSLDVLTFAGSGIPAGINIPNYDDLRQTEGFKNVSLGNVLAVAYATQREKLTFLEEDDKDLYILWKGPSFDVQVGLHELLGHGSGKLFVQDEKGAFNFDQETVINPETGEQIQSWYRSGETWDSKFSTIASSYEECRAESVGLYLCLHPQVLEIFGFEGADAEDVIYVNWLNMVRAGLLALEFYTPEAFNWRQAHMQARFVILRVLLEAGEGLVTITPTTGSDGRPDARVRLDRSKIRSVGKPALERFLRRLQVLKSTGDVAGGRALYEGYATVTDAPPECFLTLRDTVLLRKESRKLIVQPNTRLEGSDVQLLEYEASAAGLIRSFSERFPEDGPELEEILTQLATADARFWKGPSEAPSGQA

[17] = Bioavailability in dog at 1 mg/kg, iv and 1 mg/kg, po; type: ADME, organism-based, Canis lupus familiaris; details: in vivo
[18] = Half life in dog at 1 mg/kg, iv and 1 mg/kg, po; type: ADME, organism-based, Canis lupus familiaris; details: in vivo
Cytochrome P450 1A2 = target: T3, Cytochrome P450 1A2 (Homo sapiens, UniProt P05177); assay: Inhibition of CYP1A2; type: ADME
T3 sequence (P05177 whole entry): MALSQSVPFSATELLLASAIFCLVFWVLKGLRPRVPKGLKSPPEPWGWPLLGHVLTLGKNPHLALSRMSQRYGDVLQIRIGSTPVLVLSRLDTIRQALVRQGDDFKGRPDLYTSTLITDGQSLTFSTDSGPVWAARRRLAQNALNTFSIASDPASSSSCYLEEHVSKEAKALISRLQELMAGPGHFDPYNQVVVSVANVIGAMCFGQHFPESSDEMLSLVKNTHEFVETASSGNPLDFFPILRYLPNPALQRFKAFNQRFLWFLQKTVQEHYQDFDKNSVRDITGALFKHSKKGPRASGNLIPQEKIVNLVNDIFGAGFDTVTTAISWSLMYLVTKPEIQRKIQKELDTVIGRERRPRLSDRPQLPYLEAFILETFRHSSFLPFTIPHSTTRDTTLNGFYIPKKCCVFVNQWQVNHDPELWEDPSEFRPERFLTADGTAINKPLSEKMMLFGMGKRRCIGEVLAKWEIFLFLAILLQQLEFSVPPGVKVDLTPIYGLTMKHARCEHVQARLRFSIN

Cytochrome P450 2D6 = Cytochrome P450 2D6 (Homo sapiens, UniProt P10635); assay: Inhibition of CYP2D6; type: ADME
Cytochrome P450 2D6, sequence (P10635 whole entry): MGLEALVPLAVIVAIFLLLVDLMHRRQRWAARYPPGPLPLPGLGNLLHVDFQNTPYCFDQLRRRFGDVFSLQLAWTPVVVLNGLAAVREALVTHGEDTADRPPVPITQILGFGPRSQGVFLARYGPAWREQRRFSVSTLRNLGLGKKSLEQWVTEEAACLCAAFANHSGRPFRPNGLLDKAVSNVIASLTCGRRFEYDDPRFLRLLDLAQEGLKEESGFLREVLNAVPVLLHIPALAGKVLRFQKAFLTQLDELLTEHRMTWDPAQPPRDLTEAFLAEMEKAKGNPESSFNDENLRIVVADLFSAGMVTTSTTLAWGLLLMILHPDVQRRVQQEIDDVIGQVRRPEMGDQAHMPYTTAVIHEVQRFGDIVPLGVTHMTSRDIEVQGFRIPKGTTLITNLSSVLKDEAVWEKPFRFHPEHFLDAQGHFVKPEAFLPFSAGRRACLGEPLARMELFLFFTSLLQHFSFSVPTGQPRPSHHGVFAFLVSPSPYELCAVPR

[19] = Fraction unbound in human; type: ADME
[20] = Clearance in dog plasma at 1 mg/kg, iv and 1 mg/kg, po; type: ADME, organism-based, Canis lupus familiaris
[21] = Tmax in human at 0.3 to 300 mg; type: ADME, organism-based; details: in vivo
[22] = Bioavailability in cynomolgus monkey at 1 mg/kg, iv and 1 mg/kg, po; type: ADME, organism-based, Macaca fascicularis; details: in vivo
[23] = AUC in dog at 1 mg/kg, po; type: ADME, organism-based, Canis lupus familiaris; parameters: dose 1 mg/kg, route oral; details: plasma
[24] = Volume of distribution at steady state in dog at 1 mg/kg, iv and 1 mg/kg, po; type: ADME, organism-based, Canis lupus familiaris; details: in vivo, read-out: Vdss
[25] = Fraction unbound in monkey; type: ADME, Macaca mulatta; details: rhesus monkey
[26] = Half life in cynomolgus monkey at 1 mg/kg, iv and 1 mg/kg, po; type: ADME, organism-based, Macaca fascicularis; details: in vivo
[27] = Fraction unbound in dog; type: ADME, Canis lupus familiaris
Dipeptidyl peptidase 8 = Dipeptidyl peptidase 8 (Homo sapiens, UniProt Q6V1X1); assay: Inhibition of human recombinant DPP8
Dipeptidyl peptidase 2 = Dipeptidyl peptidase 2 (Homo sapiens, UniProt Q9UHL4); assay: Inhibition of human recombinant DPP2
[28] = HEK293 cells that express human ERG, probe [3H]dofetilide

Papp B→A [2]: 13.5 ×10⁻⁶ cm/s
Cmax (in vivo [3]): 237 ng/mL
AUC (in vivo [4]): 276 ng·h/mL
Papp A→B [5]: 10.4 ×10⁻⁶ cm/s
bioavailability [6]: 20%
half-life [7]: 1.5 h
clearance [8]: 61 mL/min/kg
Vd [9]: 1.8 L/kg
SMILES: N#Cc1cccnc1N1CCN([C@@H]2CN[C@H](C(=O)N3CCC(F)(F)C3)C2)CC1
IC50 [1]: > 10 µM
inhibition at 10 µM (hERG (KCNH2); [28]): -7.3%

SMILES: O=C([C@@H]1C[C@H](N2CCN(c3ncccn3)CC2)CN1)N1C[C@@H](F)[C@H](F)C1
inhibition at 10 µM (hERG (KCNH2); hek293): -1.6%

SMILES: O=C([C@@H]1C[C@H](N2CCN(c3nc4cnccc4o3)CC2)CN1)N1CCC(F)(F)C1
inhibition at 10 µM (hERG (KCNH2); [28]): 8.1%

IC50 (Rattus norvegicus): 1.3 ng/mL (≈ 3.55 nM)
IC50 (Cytochrome P450 3A4): > 30 µM
Cmax [10]: 1530 ng/mL
clearance [11]: 7.6 mL/min/kg
fraction unbound [12]: 0.8
AUC [13]: 843 ng·h/mL
IC50 (Cytochrome P450 2C9): > 30 µM
half-life [14]: 15.1 h
IC50 (Cytochrome P450 2C19): > 30 µM
IC50 (Prolyl endopeptidase): > 30 µM
Cmax [15]: 517 ng/mL
Vd [16]: 1 L/kg
IC50 (Dipeptidyl peptidase 3): > 30 µM
bioavailability [17]: 95%
Cmax (in vivo [3]): 1410 ng/mL
half-life [18]: 7.6 h
AUC (in vivo [4]): 2400 ng·h/mL
IC50 (Cytochrome P450 1A2): > 30 µM
IC50 (Cytochrome P450 2D6): > 30 µM
fraction unbound [19]: 0.8
clearance [20]: 3.7 mL/min/kg
Tmax [21]: 0.5 h
bioavailability [22]: 71%
bioavailability [6]: 109%
half-life [7]: 2.5 h
AUC [23]: 7160 ng·h/mL
clearance [8]: 38 mL/min/kg
Vd [24]: 0.7 L/kg
fraction unbound [25]: 0.8
half-life [26]: 7.6 h
fraction unbound [27]: 0.8
Vd [9]: 1.9 L/kg
SMILES: O=C([C@@H]1C[C@H](N2CCN(c3ncccn3)CC2)CN1)N1CCC(F)(F)C1 [GOSOGLIPTIN]
Emax (Rattus norvegicus): 98%
IC50 [1]: 126 µM
inhibition at 10 µM (hERG (KCNH2); hek293): 14.9%

IC50 (Dipeptidyl peptidase 8): > 30 µM
IC50 (Dipeptidyl peptidase 2): > 30 µM
SMILES: O=C([C@@H]1C[C@H](N2CCN(c3ncccn3)CC2)CN1)N1CC(F)C1

Papp B→A [2]: 11.2 ×10⁻⁶ cm/s
Papp A→B [5]: 18.6 ×10⁻⁶ cm/s
SMILES: O=C([C@@H]1C[C@H](N2CCN(c3noc4ccccc34)CC2)CN1)N1CCC(F)(F)C1
inhibition at 10 µM (hERG (KCNH2); [28]): 26.7%

SMILES: O=C([C@@H]1C[C@H](N2CCN(c3nc4cccnc4o3)CC2)CN1)N1CCC(F)(F)C1
inhibition at 10 µM (hERG (KCNH2); [28]): 7.4%

Cmax (in vivo [3]): 1820 ng/mL
AUC (in vivo [4]): 3950 ng·h/mL
bioavailability [6]: 93%
half-life [7]: 2.3 h
clearance [8]: 27 mL/min/kg
Vd [9]: 1.9 L/kg
SMILES: O=C([C@@H]1C[C@H](N2CCN(c3ncccn3)CC2)CN1)N1C[C@@H](F)[C@@H](F)C1
IC50 [1]: 54 µM
inhibition at 10 µM (hERG (KCNH2); hek293): 7.2%
